≈ marks a conversion by molar mass, not a printed value. Structures can show the parent of a compound that is named as a salt. Where two headings read alike, the source gives them in different places.
Legend:
Test in all cases: Antibacterial activity, microbroth dilution method (MIC)
[1] = test system: control Gram-negative E. coli 25922 strain; format: cell-based, Escherichia coli; conditions: Escherichia coli
Method in brief: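 Potency is reported as minimum inhibitory concentration in μg/mL, determined by broth microdilution as the lowest level of compound that stops growth visible to the eye.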

[2] = test system: Gram-positive Staphylococcus aureus (S. aureus) 29213; format: cell-based; conditions: Staphylococcus aureus, Gram-positive S. aureus 29213
Method in brief: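 In a microbroth dilution test, the minimum inhibitory concentration was defined as the lowest compound level preventing growth seen by eye, and was given in μg/mL.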

[3] = test system: super sensitive Gram-negative Escherichia coli (E. coli) BAS849; format: cell-based; conditions: Escherichia coli, read-out: MIC, E. coli BAS849
Method in brief: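 Using broth microdilution, MIC endpoints (μg/mL) mark where visible growth no longer appears; the panel spans sensitive and control Gram-negative strains plus a Gram-positive strain.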

[4] = super sensitive Gram-negative E. coli BAS849, microbroth dilution

Row | Structure (SMILES) | MIC [1] [µg/mL] | MIC [2] [µg/mL] | MIC [3, 4] [µg/mL] | MIC [3] [µg/mL]
1 | CCNCc1cc2cc3c(cc2n1C)CCCc1cc(C(=O)O)c(=O)[nH]c1-3.Cl [Cpd 54, 10-((ethylamino)methyl)-9-methyl-2-oxo-1,2,5,6,7,9-hexahydropyrido[3′,2′:6,7]cyclohepta[1,2-f]indole-3-carboxylic acid hydrochloride] | < 1 | 12.5 to 150 | < 1 | 
2 | Cl.Cn1c(CNC(C)(C)C)cc2cc3c(cc21)CCCc1c-3[nH]c(=O)c(C(=O)O)c1O [Cpd 27, 10-((tert-butylamino)methyl)-4-hydroxy-9-methyl-2-oxo-1,2,5,6,7,9-hexahydropyrido[3′,2′:6,7]cyclohepta[1,2-f]indole-3-carboxylic acid hydrochloride] | < 1 | 1 to 3.5 | < 1 | 
3 | CCn1c2c(c(O)c(C(=O)O)c1=O)CC=Cc1cc3c(ccn3C)cc1-2 [Cpd 132, 1-ethyl-4-hydroxy-9-methyl-2-oxo-1,2,5,9-tetrahydropyrido[3′,2′:6,7]cyclohepta[1,2-f]indole-3-carboxylic acid] | 12.5 to 150 (≈ 35.7 to 428 µM) | 3.5 to 12.5 (≈ 9.99 to 35.7 µM) | 3.5 to 12.5 (≈ 9.99 to 35.7 µM) | 
4 | CN[C@H]1[C@@H]2CN(c3ccc4c(c3)CCCc3c-4[nH]c(=O)c(C(=O)O)c3O)C[C@@H]21 [Cpd 11, 4-hydroxy-9-((cis,cis)-6-(methylamino)-3-azabicyclo[3.1.0]hexan-3-yl)-2-oxo-2,5,6,7-tetrahydro-1H-benzo[6,7]cyclohepta[1,2-b]pyridine-3-carboxylic acid hydrochloride] | 1 to 3.5 | 3.5 to 12.5 | < 1 | 
5 | CN1CCN(c2ccc3c(c2)CCCc2c-3[nH]c(=O)c(C(=O)O)c2O)CC1.Cl [Cpd 120, 4-hydroxy-9-(4-methylpiperazin-1-yl)-2-oxo-2,5,6,7-tetrahydro-1H-benzo[6,7]cyclohepta[1,2-b]pyridine-3-carboxylic acid hydrochloride] | 12.5 to 150 | 12.5 to 150 | 1 to 3.5 | 
6 | Cl.Cn1c(CN2CCOCC2)cc2cc3c(cc21)CCCc1c-3[nH]c(=O)c(C(=O)O)c1O [Cpd 41, 4-hydroxy-9-methyl-10-(morpholinomethyl)-2-oxo-1,2,5,6,7,9-hexahydropyrido[3′,2′:6,7]cyclohepta[1,2-f]indole-3-carboxylic acid hydrochloride] | 3.5 to 12.5 | 1 to 3.5 | < 1 | 
7 | CN(Cc1ccccc1)[C@H]1[C@@H]2CN(c3ccc4c(c3)CCCc3c-4[nH]c(=O)c(C(=O)O)c3O)C[C@@H]21 [Cpd 10, 9-((cis,cis)-6-(benzyl(methyl)amino)-3-azabicyclo[3.1.0]hexan-3-yl)-4-hydroxy-2-oxo-2,5,6,7-tetrahydro-1H-benzo[6,7]cyclohepta[1,2-b]pyridine-3-carboxylic acid hydrochloride] | 12.5 to 150 | 1 to 3.5 | 3.5 to 12.5 | 
8 | CN1CCC[C@@H]2CN(c3ccc4c(c3)CCCc3c-4[nH]c(=O)c(C(=O)O)c3O)C[C@@H]21.Cl [Cpd 115, 4-hydroxy-9-((4aR,7aR)-1-methylhexahydro-1H-pyrrolo[3,4-b]pyridin-6(2H)-yl)-2-oxo-2,5,6,7-tetrahydro-1H-benzo[6,7]cyclohepta[1,2-b]pyridine-3-carboxylic acid hydrochloride] | 12.5 to 150 | 12.5 to 150 | 3.5 to 12.5 | 
9 | CC1COc2cc(N3CCC(N(C)C)C3)ccc2-c2[nH]c(=O)c(C(=O)O)c(O)c21.Cl (stereo not drawn) [Cpd 84, 9-(3-(dimethylamino)pyrrolidin-1-yl)-4-hydroxy-5-methyl-2-oxo-1,2,5,6-tetrahydrobenzo[2,3]oxepino[4,5-b]pyridine-3-carboxylic acid hydrochloride] | 12.5 to 150 | 12.5 to 150 | 1 to 3.5 | 
10 | CN(C)C1CCN(c2ccc3c(c2)OCCc2cc(C(=O)O)c(=O)[nH]c2-3)C1.Cl (stereo not drawn) [Cpd 82, 9-(3-(dimethylamino)pyrrolidin-1-yl)-2-oxo-1,2,5,6-tetrahydrobenzo[2,3]oxepino[4,5-b]pyridine-3-carboxylic acid hydrochloride] | 12.5 to 150 | 12.5 to 150 | 3.5 to 12.5 | 
11 | Cl.Cn1c(CNCC2CCCO2)cc2cc3c(cc21)CCCc1c-3[nH]c(=O)c(C(=O)O)c1O (stereo not drawn) [Cpd 161, 4-hydroxy-9-methyl-2-oxo-10-((((tetrahydrofuran-2-yl)methyl)amino)methyl)-1,2,5,6,7,9-hexahydropyrido[3′,2′:6,7]cyclohepta[1,2-f]indole-3-carboxylic acid hydrochloride] | 1 to 3.5 | 12.5 to 150 | < 1 | 
12 | N[C@@H]1[C@H]2CN(c3ccc4c(c3)CCCc3c-4[nH]c(=O)c(C(=O)O)c3O)C[C@@H]12 [Cpd 9, 9-((cis,cis)-6-amino-3-azabicyclo[3.1.0]hexan-3-yl)-4-hydroxy-2-oxo-2,5,6,7-tetrahydro-1H-benzo[6,7]cyclohepta[1,2-b]pyridine-3-carboxylic acid trifluoroacetate] | < 1 | 3.5 to 12.5 |  | < 1
13 | CNCc1cc2cc3c(cc2n1C)C(C)CCc1c-3[nH]c(=O)c(C(=O)O)c1O.Cl (stereo not drawn) [Cpd 62, 4-hydroxy-7,9-dimethyl-10-((methylamino)methyl)-2-oxo-1,2,5,6,7,9-hexahydropyrido[3′,2′:6,7]cyclohepta[1,2-f]indole-3-carboxylic acid hydrochloride] | 3.5 to 12.5 | 12.5 to 150 | 1 to 3.5 | 
14 | CC1CC1CNCc1cc2cc3c(cc2n1C)CCCc1c-3[nH]c(=O)c(C(=O)O)c1O.Cl (stereo not drawn) [Cpd 38, 4-hydroxy-9-methyl-10-((((2-methylcyclopropyl)methyl)amino)methyl)-2-oxo-1,2,5,6,7,9-hexahydropyrido[3′,2′:6,7]cyclohepta[1,2-f]indole-3-carboxylic acid hydrochloride] | 1 to 3.5 | 3.5 to 12.5 | < 1 | 
15 | CCNCc1cc2cc3c(cc2n1C)CCCc1c-3[nH]c(=O)c(C(=O)O)c1O.Cl [Cpd 25, 10-((ethylamino)methyl)-4-hydroxy-9-methyl-2-oxo-1,2,5,6,7,9-hexahydropyrido[3′,2′:6,7]cyclohepta[1,2-f]indole-3-carboxylic acid hydrochloride] | < 1 | 3.5 to 12.5 | < 1 | 
16 | CC(CO)NCc1cc2cc3c(cc2n1C)CCCc1c-3[nH]c(=O)c(C(=O)O)c1O.Cl (stereo not drawn) [Cpd 151, 4-hydroxy-10-(((1-hydroxypropan-2-yl)amino)methyl)-9-methyl-2-oxo-1,2,5,6,7,9-hexahydropyrido[3′,2′:6,7]cyclohepta[1,2-f]indole-3-carboxylic acid hydrochloride] | 1 to 3.5 | 12.5 to 150 | 3.5 to 12.5 | 
17 | Cl.Cn1c(CNCC(C)(C)C)cc2cc3c(cc21)CCCc1c-3[nH]c(=O)c(C(=O)O)c1O [Cpd 155, 4-hydroxy-9-methyl-10-((neopentylamino)methyl)-2-oxo-1,2,5,6,7,9-hexahydropyrido[3′,2′:6,7]cyclohepta[1,2-f]indole-3-carboxylic acid hydrochloride] | 1 to 3.5 | 3.5 to 12.5 | < 1 | 
18 | Cl.O=C(O)c1c(O)c2c([nH]c1=O)-c1ccc(N3CCC4(CNC4)C3)cc1CCC2 [Cpd 121, 4-hydroxy-2-oxo-9-(2,6-diazaspiro[3.4]octan-6-yl)-2,5,6,7-tetrahydro-1H-benzo[6,7]cyclohepta[1,2-b]pyridine-3-carboxylic acid hydrochloride] | 12.5 to 150 | 12.5 to 150 | 3.5 to 12.5 | 
